According to patent publication US10017546B2 (KOREA ADVANCED INSTITUTE OF SCIENCE AND TECHNOLOGY, priority 2015, dated 2018):
Like-named read-outs stand apart in the source and are kept apart here.

Experiments:
[1] = molecular target: Rhizobium etli rhizavidin variant RAWH (RAWH-His6), E115W/S23H (Rhizobium etli, UniProt Q8KKW2, E135W/S43H); assay: Kd measurement by competition binding for [^3H]biotin against streptavidin, RAWH
Protocol: (§1) Mixtures were incubated at 37° C. for 20 h to reach equilibration. […] After 1 h incubation at room temperature, the beads were cleared by centrifugation at 13,000 rpm for 1 min. […] Samples were heated to 95° C. for 30 min, and then counted in a liquid scintillation counter. The Kd ratios between competing avidin proteins were calculated with Matlab (Mathworks) using the foregoing formula (Qureshi, M. H. & Wong, S. L. Protein Expr. Purif. 25, 409-415 (2002)).

[2] = molecular target: Rhizobium etli rhizavidin variant monodin (MA), monomeric, A67D/G71K/A82N/G84Q/S101R/A105K + S23H/Q46E/E115W, SEQ ID NO: 3 (Rhizobium etli, UniProt Q8KKW2, A102N/A125K/A87D/E135W/G104Q/G91K/Q66E/S121R/S43H); assay: [^3H]biotin off-rate assay, monodin; format: binding; conditions: free [^3H]biotin, excess cold biotin, 37° C.
Sequence of Rhizobium etli rhizavidin variant monodin (MA), monomeric, A67D/G71K/A82N/G84Q/S101R/A105K + S23H/Q46E/E115W, SEQ ID NO: 3 (Q8KKW2 entry or part of it S43H/Q66E/A87D/G91K/A102N/G104Q/S121R/A125K/E135W): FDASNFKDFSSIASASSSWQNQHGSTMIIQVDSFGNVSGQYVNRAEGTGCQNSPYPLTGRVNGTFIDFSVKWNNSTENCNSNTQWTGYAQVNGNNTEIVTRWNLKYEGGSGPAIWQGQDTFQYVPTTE
Protocol: [^3H]Biotin Off-Rate Assay
At time-points taken over 5 h at 37° C., 150 μL of aliquots were removed, and added to 600 μL of 0.2 M ZnSO4 (chilled with ice), followed by addition of 600 μL of 0.2 M NaOH. […] Dissociation rates were deduced as discussed above.

[3] = molecular target: Rhizobium etli rhizavidin variant monodin (MA, MA-His6), monomeric, A67D/G71K/A82N/G84Q/S101R/A105K + S23H/Q46E/E115W, SEQ ID NO: 3 (Rhizobium etli, UniProt Q8KKW2, A102N/A125K/A87D/E135W/G104Q/G91K/Q66E/S121R/S43H); assay: Kd measurement by competition binding for [^3H]biotin against RAWH, monodin
Sequence of Rhizobium etli rhizavidin variant monodin (MA, MA-His6), monomeric, A67D/G71K/A82N/G84Q/S101R/A105K + S23H/Q46E/E115W, SEQ ID NO: 3 (Q8KKW2 entry or part of it S43H/Q66E/A87D/G91K/A102N/G104Q/S121R/A125K/E135W): as above
Protocol: as §1

biotin-GFP = biotin-GFP (Aequorea victoria, UniProt P42212, A206V/E111V/F223Y/F64L/F99S/I128T/I167V/I171V/K158E/K166T/K26E/L221H/M153T/N105K/N149D/N164E/Q80R/S205T/S30R/S65T/T225N/V163A/Y145F/Y39I); conditions: Biotin-GFP
Protocol: After incubation at the indicated temperature (23° C., 37° C., or 45° C.) for varying time points (between 0 to 10 h), protein-conjugate mixtures were loaded onto a 15% native polyacrylamide gel. […] Data as ln(fraction bound) versus time and fitting the data to a straight line by linear regression.

biotin-DNA = assay: Gel-based off-rate measurement against biotin-DNA-fluorescein; format: binding; conditions: 10 h
HeLa cells = assay: Clustering and internalization of biotinylated cell-surface proteins; format: cell-based; conditions: Cy5-labeled avidin proteins, 37° C.
Protocol: Following biotinylation, the cells were washed twice with cold PBS-CM, treated with 100 mM glycine in PBS-CM for blocking, and washed again twice with cold PBS. […] Unbound avidin proteins were removed, and media was replaced with pre-warmed DMEM (37° C.). Cells were incubated for 5, 10, or 30 m at 37° C. Cells were washed, and fixed with 4% formaldehyde in PBS for confocal imaging (ZEISS, LSM510 META). To visualize endosome or lysozome-specific proteins, cells were fixed, permeabilized, and incubated with a primary antibody: anti-Rab11 (a GTPase of recycling endosome, Abcham) or anti-LAM P1 (Lysosomal-associated membrane protein 1, Abcham). Afterward, cells were incubated with a fluorescent secondary antibody (goat anti-rabbit 555, Abcham), and images were acquired with a confocal microscopy (ZEISS, LSM510 META).

Sequence of Rhizobium etli rhizavidin variant RAWH (RAWH-His6), E115W/S23H (Q8KKW2 entry or part of it S43H/E135W): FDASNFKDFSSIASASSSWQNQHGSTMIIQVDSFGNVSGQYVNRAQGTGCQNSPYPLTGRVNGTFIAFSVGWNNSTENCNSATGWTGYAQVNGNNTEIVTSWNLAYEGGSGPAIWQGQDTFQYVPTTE

Row | Compound | percentage of dissociated biotin conjugate after 10 h incubation with excess biotin (biotin-GFP; 23° C.) [% for 10 h*] | percentage of dissociated biotin conjugate after 10 h incubation with excess biotin (biotin-GFP; 37° C.) [% for 10 h*] | percentage of dissociated biotin conjugate after 10 h incubation with excess biotin (biotin-DNA; 23° C.) [% for 10 h*] | percentage of dissociated biotin conjugate after 10 h incubation with excess biotin (biotin-DNA; 37° C.) [% for 10 h*] | other results
1 | O=C(O)CCCC[C@@H]1SC[C@@H]2NC(=O)N[C@@H]21 [[^3H]biotin] [listing 1 of 2 here] | – | – | – | – | Kd [1]: 6.9 pM
2 | O=C(O)CCCC[C@@H]1SC[C@@H]2NC(=O)N[C@@H]21 [[^3H]biotin] [listing 2 of 2 here] | – | – | – | – | off-rate [2]: 1.2±0.3×10^−5 s^−1
3 | O=C(O)CCCC[C@@H]1SC[C@@H]2NC(=O)N[C@@H]21 [biotin] | – | – | – | – | Kd [3]: 0.031 ± 0.01 nM
4 | Neutravidin (NA): tetrameric neutravidin (Pierce) [reference compound] | 6.8 ± 1.6 | 16 ± 3.8 | 11 ± 4.4 | 20 ± 0.2 | percentage of dissociated biotin conjugate after 10 h incubation with excess biotin (biotin-GFP; 45° C.): 32 ± 5.0% for 10 h*; percentage of dissociated biotin conjugate after 10 h incubation with excess biotin (biotin-DNA; 37° C., listed as neutravidin): about 20%
5 | Streptavidin (STA): tetrameric streptavidin, purchased from Abcam [reference compound] | 4.7 ± 0.3 | 22 ± 4.4 | 6.8 ± 1.8 | 17 ± 1 | Dissociation rate (biotin-GFP; 45° C., excess biotin): 1.9 ± 0.2 × 10^−5 s^−1; percentage of dissociated biotin conjugate after 10 h incubation with excess biotin (biotin-DNA; 37° C., listed as streptavidin): about 20%; incubation time after which avidin protein was internalized (HeLa cells): 10 min
